The source of these data is US11173193B2, “Immunobiological products” (priority 2016, dated 2021).

The subject of series [1] is mice. The experiment in a line: Ear swelling test of mice, compared to Hostacortin H. The class given is in vivo. Here is the method:
Ear erythema was determined by visual inspection and detection of presence (+) or absence (−) signs.
The thickness of the control and experimental ear in all animals was measured with a micrometer. Performance measurements were summed (Σ) separately the right and left ears in groups. The percentage of ear swelling and activity series is calculated using the following formulas: […]

Series [2] has as its system subclinical mastitis. Particulars: known methods of treating mastitis of cows; cited from earlier work.
A short description of series [3]: Solubility of hydro-colloid and chitosan. It counts as physicochemical. Here is the method: Test solution: An adequate sample of Chitosan HCl, Chitosan-HAc, Chitosan, Chitosan-Valeric acid-Hydro Colloid and valeric acid, respectively was dissolved in the solvent above. This mixture was shacked and afterwards sonified in an ultrasonic bath for 5 min.
Sample: Chitosan suspended in water
Result: An acceptable solution of Chitosan in waterish or organic solvents like Methanol etc. is not possible. A suitable solubilization of Chitosan is only possible in stronger acids like HCl or HAc under production of Chitosan HCl or Chitosan HAc.

The mark [4] stands for this setting: Dose 0.1 ml, right ear (allergen provocation site).

In the case of `CC(=O)OCC(=O)[C@@]1(O)CC[C@H]2[C@@H]3CCC4=CC(=O)C=C[C@]4(C)[C@H]3[C@@H](O)C[C@@]21C` [prednisolone-21-acetyl, prednisolone-21-acetate], in series [1] (Dose 0.1 ml), the “Antiallergic activity in Ear swelling test after 2 hours post challenge” value was found to be 14.2%, the “Antiallergic activity in Ear swelling test after 24 hours post challenge” value is on record as 17.5% and the “Antiallergic activity in Ear swelling test after 48 hours post challenge” value was 10.7%. Also, in series [1] (Dose 0.1 ml, left ear), the “Σ Ear thickness after 2 hours post challenge, Left” value was 335 μm; the “Σ Ear thickness after 24 hours post challenge, Left” value was found to be 330 μm; the “Σ Ear thickness after 48 hours post challenge, Left” value was 326 μm. In addition, in series [1] (setting [4]), the “Σ Ear thickness after 2 hours post challenge, Right” value stood at 345 μm; the “Σ Ear thickness after 24 hours post challenge, Right” value worked out at 360 μm; the “Σ Ear thickness after 48 hours post challenge, Right” value is on record as 355 μm. In addition, in series [1] (all stages of the experiment), the “inflammatory response in challenged mice” value is recorded as “positive dynamics of reducing inflammatory response”.

In the case of `CCN(CC)CCOC(=O)c1ccc(N)cc1` [procaine], the recovery time in series [2] is 3 to 5 days.

With chitosan, in series [3], the Solubility in water entry is listed as “water insoluble” and the “solution in waterish or organic solvents like Methanol” value is “not possible”.
